Experimental data reported in US9527885B2, “Hepatitis C virus inhibitors” (BRISTOL-MYERS SQUIBB COMPANY, priority 2011, dated 2016).
Read-outs that look alike come from different tables or passages of the source.

Experiments:
[1] = system: HCV genotype 1a (H77 strain) replicon in HUH-7 cells; experiment: HCV replicon luciferase reporter assay, genotype 1a; type: cell-based; conditions: Hepatitis C virus, Huh-7, 72 h, 3 days incubation, read-out: LE_1a (EC50, range)
In short: (§1)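 Twenty-point, threefold compound titrations (0.5% DMSO) were incubated 3 days at 37 °C with 3.0×10^3 HUH-7 cells/well in 4% FCS. The cells stably carried luciferase replicons: genotype 1b Con1 (S1179I) or 1a H77 (NS3 P1496L, NS5A S2204I). Renilla signal was read after 2 h with 7.5 μM EnduRen, and EC50 was taken from a four-parameter logistic fit. Cytotoxicity (CC50) was measured by Cell Titer-Blue, 8 h.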

[2] = system: HCV genotype 1b (Con1) replicon in HUH-7 cells; experiment: HCV replicon luciferase reporter assay, genotype 1b; type: cell-based; conditions: Hepatitis C virus, 72 h, 3 days incubation, read-out: LE_1b (EC50, range)
In short: as §1

[3] = HCV genotype 1a replicon luciferase, range class
[4] = HCV genotype 1b replicon luciferase, range class
[5] = HCV genotype 1a replicon luciferase, class symbols
[6] = HCV genotype 1b replicon luciferase, class symbols

SMILES | EC50 [1, 5] [nM] | EC50 [2, 6] [nM] | also measured
COc1ccc2c(O[C@@H]3C[C@H]4C(=O)N[C@]5(C(=O)NS(=O)(=O)C6CC6)C[C@H]5/C=C\CC[C@@H](C)C[C@@H](C)[C@H](NC(=O)O[C@@H]5C[C@@H]6C[C@@H]6C5)C(=O)N4C3)nc(-c3ccc(OC(C)C)cn3)cc2c1 [Compound 5209, (1R,3r,5S)-bicyclo[3.1.0]hexan-3-yl ((2R,6S,7R,9R,13aS,14aR,16aS,Z)-14a-((cyclopropylsulfonyl)carbamoyl)-2-((3-(5-isopropoxypyridin-2-yl)-6-methoxyisoquinolin-1-yl)oxy)-7,9-dimethyl-5,16-dioxo-1,2,3,5,6,7,8,9,10,11,13a,14,14a,15,16,16a-hexadecahydrocyclopropa[e]pyrrolo[1,2-a][1,4]diazacyclopentadecin-6-yl)carbamate] | – | – | EC50 [1, 3]: < 5.46 nM; EC50 [2, 4]: < 5.46 nM
CCOc1cnc(O[C@@H]2C[C@H]3C(=O)N[C@]4(C(=O)NS(=O)(=O)C5(C)CC5)C[C@H]4/C=C\CC[C@H](C)C[C@@H](C)[C@H](NC(=O)OC(C)(C)C(C)(F)F)C(=O)N3C2)c2ccccc12 [Compound 5112, 3,3-difluoro-2-methylbutan-2-yl ((2R,6S,7R,9S,13aS,14aR,16aS,Z)-2-((4-ethoxyisoquinolin-1-yl)oxy)-7,9-dimethyl-14a-(((1-methylcyclopropyl)sulfonyl)carbamoyl)-5,16-dioxo-1,2,3,5,6,7,8,9,10,11,13a,14,14a,15,16,16a-hexadecahydrocyclopropa[e]pyrrolo[1,2-a][1,4]diazacyclopentadecin-6-yl)carbamate] | 4.82 to 103 | 4.82 to 103 | –
CC[C@@H]1C[C@H](C)CC/C=C\[C@@H]2C[C@@]2(C(=O)NS(=O)(=O)C2(C)CC2)NC(=O)[C@@H]2C[C@@H](Oc3nccc4cc(OC)ccc34)CN2C(=O)[C@H]1NC(=O)OC(C)(C)C [Compound 4203, tert-butyl (2R,6S,7R,9R,13aS,14aR,16aS,Z)-7-ethyl-2-(6-methoxyisoquinolin-1-yloxy)-9-methyl-14a-(1-methylcyclopropylsulfonylcarbamoyl)-5,16-dioxo-1,2,3,5,6,7,8,9,10,11,13a,14,14a,15,16,16a-hexadecahydrocyclopropa[e]pyrrolo[1,2-a][1,4]diazacyclopentadecin-6-ylcarbamate] | < 5.46 | < 5.46 | –
COc1ccc2c(O[C@@H]3C[C@H]4C(=O)N[C@]5(C(=O)NS(=O)(=O)C6(CF)CC6)C[C@H]5/C=C\CC[C@@H](C)C[C@@H](C)[C@H](NC(=O)OC(C)(C)C(F)(F)F)C(=O)N4C3)ccnc2c1 [Compound 4198, 1,1,1-trifluoro-2-methylpropan-2-yl (2R,6S,7R,9R,13aS,14aR,16aS,Z)-14a-(1-(fluoromethyl)cyclopropylsulfonylcarbamoyl)-2-(7-methoxyquinolin-4-yloxy)-7,9-dimethyl-5,16-dioxo-1,2,3,5,6,7,8,9,10,11,13a,14,14a,15,16,16a-hexadecahydrocyclopropa[e]pyrrolo[1,2-a][1,4]diazacyclopentadecin-6-ylcarbamate] | 4.82 to 103 | < 5.46 | –
COc1ccc2c(O[C@@H]3C[C@H]4C(=O)N[C@]5(C(=O)NS(=O)(=O)C6CC6)C[C@H]5/C=C\CC[C@H](C)C[C@@H](C)[C@H](NC(=O)O[C@@H]5C[C@@H]6C[C@@H]6C5)C(=O)N4C3)nc(-c3ccc(OC(C)C)cn3)cc2c1 [Compound 5208, (1R,3r,5S)-bicyclo[3.1.0]hexan-3-yl ((2R,6S,7R,9S,13aS,14aR,16aS,Z)-14a-((cyclopropylsulfonyl)carbamoyl)-2-((3-(5-isopropoxypyridin-2-yl)-6-methoxyisoquinolin-1-yl)oxy)-7,9-dimethyl-5,16-dioxo-1,2,3,5,6,7,8,9,10,11,13a,14,14a,15,16,16a-hexadecahydrocyclopropa[e]pyrrolo[1,2-a][1,4]diazacyclopentadecin-6-yl)carbamate] | – | – | EC50 [1, 3]: < 5.46 nM; EC50 [2, 4]: < 5.46 nM
CC[C@@H]1C[C@H](C)CC/C=C\[C@@H]2C[C@@]2(C(=O)NS(=O)(=O)C2(C)CC2)NC(=O)[C@@H]2C[C@@H](Oc3ncc(OC)c4ccc(F)cc34)CN2C(=O)[C@H]1NC(=O)OC(C)(C)C(F)(F)F [Compound 4186, 1,1,1-trifluoro-2-methylpropan-2-yl (2R,6S,7R,9R,13aS,14aR,16aS,Z)-7-ethyl-2-(7-fluoro-4-methoxyisoquinolin-1-yloxy)-9-methyl-14a-(1-methylcyclopropylsulfonylcarbamoyl)-5,16-dioxo-1,2,3,5,6,7,8,9,10,11,13a,14,14a,15,16,16a-hexadecahydrocyclopropa[e]pyrrolo[1,2-a][1,4]diazacyclopentadecin-6-ylcarbamate] | < 5.46 | < 5.46 | –
CC[C@@H]1C[C@H](C)CC/C=C\[C@@H]2C[C@@]2(C(=O)NS(=O)(=O)C2CC2)NC(=O)[C@@H]2C[C@@H](Oc3cnc4ccc(OC)cc4n3)CN2C(=O)[C@H]1NC(=O)OC(C)(C)C(F)(F)F [Compound 4194, 1,1,1-trifluoro-2-methylpropan-2-yl (2R,6S,7R,9R,13aS,14aR,16aS,Z)-14a-(cyclopropylsulfonylcarbamoyl)-7-ethyl-2-(7-methoxyquinoxalin-2-yloxy)-9-methyl-5,16-dioxo-1,2,3,5,6,7,8,9,10,11,13a,14,14a,15,16,16a-hexadecahydrocyclopropa[e]pyrrolo[1,2-a][1,4]diazacyclopentadecin-6-ylcarbamate] | < 5.46 | < 5.46 | –
COc1cnc(O[C@@H]2C[C@H]3C(=O)N[C@]4(C(=O)NS(=O)(=O)C5CC5)C[C@H]4/C=C\CC[C@@H](C)C[C@@H](C)[C@H](NC(=O)OC(C)(C)C(F)(F)F)C(=O)N3C2)c2ccccc12 [Compound 3, 1,1,1-trifluoro-2-methylpropan-2-yl ((2R,6S,7R,9R,13aS,14aR,16aS,Z)-14a-((cyclopropylsulfonyl)carbamoyl)-2-((4-methoxyisoquinolin-1-yl)oxy)-7,9-dimethyl-5,16-dioxo-1,2,3,5,6,7,8,9,10,11,13a,14,14a,15,16,16a-hexadecahydrocyclopropa[e]pyrrolo[1,2-a][1,4]diazacyclopentadecin-6-yl)carbamate] | – | – | EC50 ([1]; HCV genotype 1a replicon luciferase reporter, range class): < 5.46 nM; EC50 ([2]; HCV genotype 1b replicon luciferase reporter, range class): < 5.46 nM
COc1ccc2c(O[C@@H]3C[C@H]4C(=O)N[C@]5(C(=O)NS(=O)(=O)C6CC6)C[C@H]5/C=C\CC[C@@H](C)C[C@@H](C)[C@H](NC(=O)O[C@@H]5C[C@@H]6C[C@@H]6C5)C(=O)N4C3)nc(-c3ccc(N4CCOCC4)cc3)cc2c1 [Compound 5195, (1R,3r,5S)-bicyclo[3.1.0]hexan-3-yl ((2R,6S,7R,9R,13aS,14aR,16aS,Z)-14a-((cyclopropylsulfonyl)carbamoyl)-2-((6-methoxy-3-(4-morpholinophenyl)isoquinolin-1-yl)oxy)-7,9-dimethyl-5,16-dioxo-1,2,3,5,6,7,8,9,10,11,13a,14,14a,15,16,16a-hexadecahydrocyclopropa[e]pyrrolo[1,2-a][1,4]diazacyclopentadecin-6-yl)carbamate] | – | – | EC50 [1, 3]: < 5.46 nM; EC50 [2, 4]: < 5.46 nM
CCOc1ccc2c(O[C@@H]3C[C@H]4C(=O)N[C@]5(C(=O)NS(=O)(=O)C6(C)CC6)C[C@H]5/C=C\CC[C@@H](C)C[C@@H](C)[C@H](NC(=O)O[C@@H]5C[C@@H]6C[C@@H]6C5)C(=O)N4C3)nccc2c1 [Compound 5138, (1R,3r,5S)-bicyclo[3.1.0]hexan-3-yl ((2R,6S,7R,9R,13 aS,14aR,16aS,Z)-2-((6-ethoxyisoquinolin-1-yl)oxy)-7,9-dimethyl-14a-(((1-methylcyclopropyl)sulfonyl)carbamoyl)-5,16-dioxo-1,2,3,5,6,7,8,9,10,11,13a,14,14a,15,16,16a-hexadecahydrocyclopropa[e]pyrrolo[1,2-a][1,4]diazacyclopentadecin-6-yl)carbamate] | < 5.46 | < 5.46 | –
COc1ccc2c(O[C@@H]3C[C@H]4C(=O)N[C@]5(C(=O)NS(=O)(=O)C6(CF)CC6)C[C@H]5/C=C\CC[C@@H](C)C[C@@H](C)[C@H](NC(=O)OC(C)(C)C(F)(F)F)C(=O)N4C3)cc(Cl)nc2c1 [Compound 4199, 1,1,1-trifluoro-2-methylpropan-2-yl (2R,6S,7R,9R,13aS,14aR,16aS,Z)-2-(2-chloro-7-methoxyquinolin-4-yloxy)-14a-(1-(fluoromethyl)cyclopropylsulfonylcarbamoyl)-7,9-dimethyl-5,16-dioxo-1,2,3,5,6,7,8,9,10,11,13a,14,14a,15,16,16a-hexadecahydrocyclopropa[e]pyrrolo[1,2-a][1,4]diazacyclopentadecin-6-ylcarbamate] | < 5.46 | < 5.46 | –
